Assay results published in patent US12403137B2, “Compounds and methods of use” (Tango Therapeutics, Inc., priority 2019, dated 2025).
pIC50: −log10 of the molar value.

Key:
PRMT5 [1] = biological target: T1, PRMT5 (Homo sapiens, UniProt O14744); experiment: PRMT5 inhibition assay with SAM as cofactor; assay type: biochemical; details: against PRMT5 in the presence of SAM as cofactor
T1 construct: purchased Viva (custom protein)
Text: (§1) The Ki values can be calculated from the IC50 values as described in the Examples section. As detailed in the Examples section, for the assay performed in the presence of SAM, IC50=Ki×1.5 (Ki=IC50/1.5). For the assay performed in the presence of MTA, IC50=Ki×13.5 (Ki=IC50/13.5). Column 6 indicates the ratio between the Ki of compounds in the presence of SAM and the Ki of compounds in the presence of MTA

[2] = test system: HAP1 MTAP-deleted cell line; experiment: SDMA in-cell western assay, HAP1 MTAP-deleted; assay type: cell-based; details: for pIC50: Homo sapiens, HAP1 MTAP-deleted (MTAP-null) cell line; for MTAP Intact/Deleted Ratio: IC50 ratio HAP1 MTAP-intact / HAP1 MTAP-deleted, >=3 fold considered MTAP-selective
Summary of the method: (§2)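 IC50 values come from an SDMA in-cell western run in isogenic HAP1 cells, either MTAP-null or expressing endogenous MTAP. The intact-to-deleted IC50 ratio is used to score MTAP selectivity.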

PRMT5 [3] = biological target: T1, PRMT5; experiment: PRMT5 inhibition assay with MTA as cofactor; assay type: biochemical; details: for pIC50: against PRMT5 with MTA as cofactor; for SAM/MTA Ratio: ratio of Ki in the presence of SAM to Ki in the presence of MTA, Ki=IC50/1.5 (SAM), Ki=IC50/13.5 (MTA)
Text: as §1

[4] = test system: HAP1 MTAP-intact cell line; experiment: SDMA in-cell western assay, HAP1 MTAP-intact; assay type: cell-based; details: Homo sapiens
Summary of the method: as §2

PRMT5 [5] = biological target: T1, PRMT5; experiment: PRMT5 inhibition assay with no cofactor; assay type: biochemical; details: against PRMT5 with no cofactor; read-out: No Co-factor IC50

T1 sequence (O14744 whole entry): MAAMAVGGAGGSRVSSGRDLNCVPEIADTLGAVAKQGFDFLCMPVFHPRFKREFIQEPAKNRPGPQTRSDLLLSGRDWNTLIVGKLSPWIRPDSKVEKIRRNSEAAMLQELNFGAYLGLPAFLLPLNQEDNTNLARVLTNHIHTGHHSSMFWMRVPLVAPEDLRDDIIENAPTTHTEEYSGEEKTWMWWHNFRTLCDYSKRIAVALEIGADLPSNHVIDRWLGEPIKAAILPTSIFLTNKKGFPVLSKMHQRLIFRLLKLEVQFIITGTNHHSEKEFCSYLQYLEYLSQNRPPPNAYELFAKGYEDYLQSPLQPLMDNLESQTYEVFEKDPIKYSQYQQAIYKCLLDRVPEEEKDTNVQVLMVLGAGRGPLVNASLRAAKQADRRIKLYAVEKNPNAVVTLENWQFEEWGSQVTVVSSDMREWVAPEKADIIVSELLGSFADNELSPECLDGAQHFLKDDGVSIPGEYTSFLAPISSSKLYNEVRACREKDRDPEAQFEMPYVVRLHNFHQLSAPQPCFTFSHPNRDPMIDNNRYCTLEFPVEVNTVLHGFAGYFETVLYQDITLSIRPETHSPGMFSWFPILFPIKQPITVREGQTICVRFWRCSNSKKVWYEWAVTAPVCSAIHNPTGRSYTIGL
T1 sequence (Q9BQA1 whole entry partner): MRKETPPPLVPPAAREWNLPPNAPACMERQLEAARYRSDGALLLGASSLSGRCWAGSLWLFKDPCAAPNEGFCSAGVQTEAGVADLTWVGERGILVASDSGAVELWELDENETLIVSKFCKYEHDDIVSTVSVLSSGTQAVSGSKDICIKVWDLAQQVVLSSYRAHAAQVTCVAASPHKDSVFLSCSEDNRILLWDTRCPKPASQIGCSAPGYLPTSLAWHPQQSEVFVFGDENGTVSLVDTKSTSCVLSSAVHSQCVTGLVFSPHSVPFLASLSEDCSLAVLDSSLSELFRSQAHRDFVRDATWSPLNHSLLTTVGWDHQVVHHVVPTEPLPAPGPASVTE

Row | SMILES | pIC50 (PRMT5 [1]) | pIC50 [2] | pIC50 (PRMT5 [3]) | pIC50 [4] | pIC50 (PRMT5 [5]) | MTAP Intact/Deleted Ratio [2] | SAM/MTA Ratio (PRMT5 [3])
1 | CC(=O)N1CC(Nc2cc(C(=O)NC[C@@H](O)[C@@H]3Cc4ccc(OCc5ocnc5C)cc4CN3)nc(N3CCCC3)n2)C1 [Compound 61, 6-[(1-acetylazetidin-3-yl)amino]-N-[(2R)-2-hydroxy-2-[(3S)-7-[(4-methyloxazol-5-yl)methoxy]-1,2,3,4-tetrahydroisoquinolin-3-yl]ethyl]-2-pyrrolidin-1-yl-pyrimidine-4-carboxamide] | 6.30 to 7.30 | > 6.00 | > 7.30 | ≤ 5.00 | 6.30 to 7.30 | A* (an IC50 ratio greater than or equal to 10 fold between the IC50 in the HAP1 MTAP-intact cell line and the HAP1 MTAP-deleted cell line) | A (a Ki ratio greater than or equal to 10 fold between the Ki in the presence of SAM and the Ki in the presence of MTA)
2 | CCOc1nc(N2CCN(C(=O)OC)CC2)ccc1C(=O)NC[C@@H](O)[C@@H]1Cc2ccc(OCc3ccnn3C)cc2CN1 [Compound 18, methyl 4-(6-ethoxy-5-(((R)-2-hydroxy-2-((S)-7-((1-methyl-1H-pyrazol-5-yl)methoxy)-1,2,3,4-tetrahydroisoquinolin-3-yl)ethyl)carbamoyl)pyridin-2-yl)piperazine-1-carboxylate] | 6.30 to 7.30 | > 6.00 | > 7.30 | ≤ 5.00 | 5.30 to 6.30 | A* (an IC50 ratio greater than or equal to 10 fold between the IC50 in the HAP1 MTAP-intact cell line and the HAP1 MTAP-deleted cell line) | A (a Ki ratio greater than or equal to 10 fold between the Ki in the presence of SAM and the Ki in the presence of MTA)
3 | Cc1ncoc1COc1ccc2c(c1)CN[C@H]([C@H](O)CNC(=O)c1ccc(C(=O)N3[C@@H]4CCC[C@H]3COC4)cc1)C2 [Compound 8, 4-((1R,5S)-3-oxa-9-azabicyclo[3.3.1]nonane-9-carbonyl)-N—((R)-2-hydroxy-2-((S)-7-((4-methyloxazol-5-yl)methoxy)-1,2,3,4-tetrahydroisoquinolin-3-yl)ethyl)benzamide] | 6.30 to 7.30 | > 6.00 | 6.30 to 7.30 | 5.00 to 6.00 | 6.30 to 7.30 | A* (an IC50 ratio greater than or equal to 10 fold between the IC50 in the HAP1 MTAP-intact cell line and the HAP1 MTAP-deleted cell line) | A (a Ki ratio greater than or equal to 10 fold between the Ki in the presence of SAM and the Ki in the presence of MTA)
4 | O=C(NC[C@@H](O)[C@@H]1Cc2ccc(OCc3cn[nH]c3)cc2CN1)c1ccc(C(=O)N2CCOCC2)cc1 [Compound 4, N—((R)-2-((S)-7-((1H-pyrazol-4-yl)methoxy)-1,2,3,4-tetrahydroisoquinolin-3-yl)-2-hydroxyethyl)-4-(morpholine-4-carbonyl)benzamide] | 6.30 to 7.30 | 5.00 to 6.00 | 6.30 to 7.30 | ≤ 5.00 | 6.30 to 7.30 | C* (an IC50 ratio of less than 3 fold between the IC50 in the HAP1 MTAP-intact cell line and the HAP1 MTAP-deleted cell line) | A (a Ki ratio greater than or equal to 10 fold between the Ki in the presence of SAM and the Ki in the presence of MTA)
5 | Cc1ncoc1COc1ccc2c(c1)CN[C@H]([C@H](O)CNC(=O)c1cc(NC3CCC3)nc(N3CCN(C(C)C)CC3)n1)C2 [Compound 63] | 6.30 to 7.30 | > 6.00 | > 7.30 | > 6.00 | 6.30 to 7.30 | C* (an IC50 ratio of less than 3 fold between the IC50 in the HAP1 MTAP-intact cell line and the HAP1 MTAP-deleted cell line) | A (a Ki ratio greater than or equal to 10 fold between the Ki in the presence of SAM and the Ki in the presence of MTA)
6 | Cn1nccc1COc1ccc2c(c1)CN[C@H]([C@H](O)CNC(=O)c1ccc(C(=O)N3[C@@H]4CCC[C@H]3COC4)cc1)C2 [Compound 9, 4-((1R,5S)-3-oxa-9-azabicyclo[3.3.1]nonane-9-carbonyl)-N—((R)-2-hydroxy-2-((S)-7-((1-methyl-1H-pyrazol-5-yl)methoxy)-1,2,3,4-tetrahydroisoquinolin-3-yl)ethyl)benzamide] | 6.30 to 7.30 | 5.00 to 6.00 | 6.30 to 7.30 | ≤ 5.00 | 5.30 to 6.30 | B* (an IC50 ratio greater than or equal to 3 fold but lower than 10 fold between the IC50 in the HAP1 MTAP-intact cell line and the HAP1 MTAP-deleted cell line) | A (a Ki ratio greater than or equal to 10 fold between the Ki in the presence of SAM and the Ki in the presence of MTA)

The next lines start with results.

Row | pIC50 (PRMT5 [1]) | pIC50 [2] | pIC50 (PRMT5 [3]) | pIC50 [4] | pIC50 (PRMT5 [5]) | SMILES | MTAP Intact/Deleted Ratio [2] | SAM/MTA Ratio (PRMT5 [3])
7 | 6.30 to 7.30 | > 6.00 | > 7.30 | 5.00 to 6.00 | 6.30 to 7.30 | CCOc1nc(N2CCN(C(=O)OC)CC2)ccc1C(=O)NC[C@@H](O)[C@@H]1Cc2ccc(OCc3cnco3)cc2CN1 [Compound 16, methyl 4-(6-ethoxy-5-(((R)-2-hydroxy-2-((S)-7-(oxazol-5-ylmethoxy)-1,2,3,4-tetrahydroisoquinolin-3-yl)ethyl)carbamoyl)pyridin-2-yl)piperazine-1-carboxylate] | B* (an IC50 ratio greater than or equal to 3 fold but lower than 10 fold between the IC50 in the HAP1 MTAP-intact cell line and the HAP1 MTAP-deleted cell line) | A (a Ki ratio greater than or equal to 10 fold between the Ki in the presence of SAM and the Ki in the presence of MTA)
8 | 6.30 to 7.30 | > 6.00 | > 7.30 | 5.00 to 6.00 | 5.30 to 6.30 | COc1cnc(NC2CCC2)cc1C(=O)NC[C@@H](O)[C@@H]1Cc2ccc(OCc3ocnc3C)cc2CN1 [Compound 36, 2-(cyclobutylamino)-N—((R)-2-hydroxy-2-((S)-7-((4-methyloxazol-5-yl)methoxy)-1,2,3,4-tetrahydroisoquinolin-3-yl)ethyl)-5-methoxyisonicotinamide] | B* (an IC50 ratio greater than or equal to 3 fold but lower than 10 fold between the IC50 in the HAP1 MTAP-intact cell line and the HAP1 MTAP-deleted cell line) | A (a Ki ratio greater than or equal to 10 fold between the Ki in the presence of SAM and the Ki in the presence of MTA)
9 | 6.30 to 7.30 | > 6.00 | > 7.30 | > 6.00 | 6.30 to 7.30 | Cc1ncoc1COc1ccc2c(c1)CN[C@H]([C@H](O)CNC(=O)c1ccc(OC3CCN(Cc4ccncc4)CC3)cc1)C2 [Compound 23, N—((R)-2-hydroxy-2-((S)-7-((4-methyloxazol-5-yl)methoxy)-1,2,3,4-tetrahydroisoquinolin-3-yl)ethyl)-4-((1-(pyridin-4-ylmethyl)piperidin-4-yl)oxy)benzamide] | B* (an IC50 ratio greater than or equal to 3 fold but lower than 10 fold between the IC50 in the HAP1 MTAP-intact cell line and the HAP1 MTAP-deleted cell line) | A (a Ki ratio greater than or equal to 10 fold between the Ki in the presence of SAM and the Ki in the presence of MTA)
10 | 6.30 to 7.30 | > 6.00 | 6.30 to 7.30 | ≤ 5.00 | 6.30 to 7.30 | CCN(C)c1cc(C(=O)NC[C@@H](O)[C@@H]2Cc3ccc(OCc4ocnc4C)cc3CN2)cc(NC2CCC2)n1 [Compound 24, 2-(cyclobutylamino)-6-(ethyl(methyl)amino)-N—((R)-2-hydroxy-2-((S)-7-((4-methyloxazol-5-yl)methoxy)-1,2,3,4-tetrahydroisoquinolin-3-yl)ethyl)isonicotinamide] | A* (an IC50 ratio greater than or equal to 10 fold between the IC50 in the HAP1 MTAP-intact cell line and the HAP1 MTAP-deleted cell line) | A (a Ki ratio greater than or equal to 10 fold between the Ki in the presence of SAM and the Ki in the presence of MTA)
11 | 6.30 to 7.30 | > 6.00 | > 7.30 | > 6.00 | 6.30 to 7.30 | Cc1ncoc1COc1ccc2c(c1)CN[C@H]([C@H](O)CNC(=O)c1ccnc(NC3CC4(CCC4)C3)c1)C2 [Compound 46, N-[(2R)-2-hydroxy-2-[(3S)-7-[(4-methyloxazol-5-yl)methoxy]-1,2,3,4-tetrahydroisoquinolin-3-yl]ethyl]-2-(spiro[3.3]heptan-2-ylamino)pyridine-4-carboxamide] | B* (an IC50 ratio greater than or equal to 3 fold but lower than 10 fold between the IC50 in the HAP1 MTAP-intact cell line and the HAP1 MTAP-deleted cell line) | A (a Ki ratio greater than or equal to 10 fold between the Ki in the presence of SAM and the Ki in the presence of MTA)
12 | 6.30 to 7.30 | > 6.00 | > 7.30 | > 6.00 | 6.30 to 7.30 | CCN1CCN(c2cc(C(=O)NC[C@@H](O)[C@@H]3Cc4ccc(OCc5ocnc5C)cc4CN3)cc(NC3CCC3)n2)CC1 [Compound 55, 2-(cyclobutylamino)-6-(4-ethylpiperazin-1-yl)-N-[(2R)-2-hydroxy-2-[(3S)-7-[(4-methyloxazol-5-yl)methoxy]-1,2,3,4-tetrahydroisoquinolin-3-yl]ethyl]pyridine-4-carboxamide] | B* (an IC50 ratio greater than or equal to 3 fold but lower than 10 fold between the IC50 in the HAP1 MTAP-intact cell line and the HAP1 MTAP-deleted cell line) | A (a Ki ratio greater than or equal to 10 fold between the Ki in the presence of SAM and the Ki in the presence of MTA)
